According to patent publication US20090326003A1, “PYRAZOLO (3, 4-B) PYRIDINE DERIVATIVES AS PDE4 INHIBITORS” (priority 2006, published 2009):
Structures can show the parent of a compound that is named as a salt.

Biological target: T1, PDE4B (human recombinant) (Homo sapiens, UniProt Q07343)
T1 construct: made in house
Assay: PDE4B inhibition, fluorescence polarisation (FP) and/or SPA assay
Format: biochemical
Conditions: n=1 or average of 2 or more readings, accuracy ±about 0.5 log unit, read-out: PDE4B pIC50 (generally in FP assay) (±about 0.5) (converted)
Source text: Human recombinant PDE4B, in particular the 2B splice variant thereof (HSPDE4B2B), is disclosed in WO 94/20079 and also M. M. McLaughlin et al., “A low Km, rolipram-sensitive, cAMP-specific phosphodiesterase from human brain: cloning and expression of cDNA, biochemical characterisation of recombinant protein, and tissue distribution of mRNA”, J. Biol. Chem., 1993, 268, 6470-6476. For example, in Example 1 of WO 94/20079, human recombinant PDE4B is described as being expressed in the PDE-deficient yeast Saccharomyces cerevisiae strain GL62, e.g. after induction by addition of 150 uM CuSO4, and 100,000×g supernatant fractions of yeast cell lysates are described for use in the harvesting of PDE4B enzyme.
The ability of compounds to inhibit catalytic activity at PDE4B or 4D (human recombinant), PDE3 (from bovine aorta), PDE5 (human recombinant) or PDE6 (from bovine retina) can optionally be determined by Scintillation Proximity Assay (SPA) in a 96-well format.
Test compounds (as a solution in DMSO, preferably about 2 microliter (ul) volume of DMSO solution) are preincubated at ambient temperature (room temperature, e.g. 19-23° C.) in Wallac Isoplates (code 1450-514) with PDE enzyme in 50 mM Tris-HCl buffer pH 7.5, 8.3 mM MgCl2, 1.7 mM EGTA, 0.05% (w/v) bovine serum albumin for 10-30 minutes (usually 30 minutes). The enzyme concentration is adjusted so that no more than 20% hydrolysis of the substrate defined below occurs in control wells without compound, during the incubation. For the PDE3, PDE4B and PDE4D assays, [5′,8-3H]Adenosine 3′,5′-cyclic phosphate (Amersham Pharmacia Biotech, code TRK.559; or Amersham Biosciences UK Ltd, Pollards Wood, Chalfont St Giles, Buckinghamshire HP8 4SP, UK) is added to give 0.05 uCi per well and about 10 nM final concentration. For the PDE5 and PDE6 assays, [8-^3H]Guanosine 3′,5′-cyclic phosphate (Amersham Pharmacia Biotech, code TRK.392) is added to give 0.05 uCi per well and about 36 nM final concentration. Plates containing assay mixture, preferably approx. 100 ul volume of assay mixture, are mixed on an orbital shaker for 5 minutes and incubated at ambient temperature for 1 hour. Phosphodiesterase SPA beads (Amersham Pharmacia Biotech, code RPNQ 0150) are added (about 1 mg per well) to terminate the assay. Plates are sealed and shaken and allowed to stand at ambient temperature for 35 minutes to 1 hour (preferably 35 minutes) to allow the beads to settle. Bound radioactive product is measured using a WALLAC TRILUX 1450 Microbeta scintillation counter. For inhibition curves, 10 concentrations (e.g. 1.5 nM-30 uM) of each compound are assayed. Curves are analysed using ActivityBase and XLfit (ID Business Solutions Limited, 2 Ocean Court, Surrey Research Park, Guildford, Surrey GU2 7QB, United Kingdom) Results are expressed as pIC50 values.
The ability of compounds to inhibit catalytic activity at PDE4B (human recombinant) or PDE4D (human recombinant) can optionally be determined by IMAP Fluorescence Polarisation (FP) assay (IMAP Explorer kit, available from Molecular Devices Corporation, Sunnydale, Calif., USA; Molecular Devices code: R8062) in 384-well format.
The IMAP FP assay is able to measure PDE activity in an homogenous, non-radioactive assay format. The FP assay uses the ability of immobilised trivalent metal cations, coated onto nanoparticles (tiny beads), to bind the phosphate group of FI-AMP that is produced on the hydrolysis of fluorescein-labelled (FI) cyclic adenosine mono-phosphate (FI-cAMP) to the non-cyclic FI-AMP form. […] Binding of FI-AMP product to the beads (coated with the immobilised trivalent cations) slows the rotation of the bound FI-AMP and leads to an increase in the fluorescence polarisation ratio of parallel to perpendicular light. Inhibition of the PDE reduces/inhibits this signal increase. […]

T1 sequence (Q07343 1-564 isoform Q07343-2): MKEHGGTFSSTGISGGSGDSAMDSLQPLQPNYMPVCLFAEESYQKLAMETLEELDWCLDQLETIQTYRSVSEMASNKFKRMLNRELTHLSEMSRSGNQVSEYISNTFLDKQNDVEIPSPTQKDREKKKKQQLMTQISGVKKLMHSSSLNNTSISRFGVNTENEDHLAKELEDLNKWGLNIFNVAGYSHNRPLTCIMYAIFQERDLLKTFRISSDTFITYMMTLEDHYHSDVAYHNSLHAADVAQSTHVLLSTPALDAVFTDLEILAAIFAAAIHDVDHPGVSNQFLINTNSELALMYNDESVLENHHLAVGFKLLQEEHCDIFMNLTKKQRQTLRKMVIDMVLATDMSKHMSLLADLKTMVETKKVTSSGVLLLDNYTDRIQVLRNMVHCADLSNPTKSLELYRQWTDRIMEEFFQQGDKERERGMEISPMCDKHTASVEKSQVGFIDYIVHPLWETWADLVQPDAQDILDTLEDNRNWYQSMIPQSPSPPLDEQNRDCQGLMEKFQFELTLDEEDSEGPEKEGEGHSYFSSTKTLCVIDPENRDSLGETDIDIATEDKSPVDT

SMILES	IC50 [nM]
CCc1nc2c(cnn2CC)c(NC2CCN(C(N)=O)CC2)c1CNC(=O)c1ccc(C(=O)NCc2c(CC)nc3c(cnn3CC)c2NC2CCN(C(N)=O)CC2)cc1 [Example 25, N,N′-bis[(4-{[1-(aminocarbonyl)-4-piperidinyl]amino}-1,6-diethyl-1H-pyrazolo[3,4-b]pyridin-5-yl)methyl]-1,4-benzenedicarboxamide]	0.0158 to 0.1
CCc1nc2c(cnn2CC)c(NC2CCN(C(N)=O)CC2)c1CNC(=O)CS(=O)(=O)CC(=O)NCc1c(CC)nc2c(cnn2CC)c1NC1CCN(C(N)=O)CC1 [Example 12, 4,4′-{sulfonylbis[(1-oxo-2,1-ethanediyl)iminomethanediyl(1,6-diethyl-1H-pyrazolo[3,4-b]pyridine-5,4-diyl)imino]}di(1-piperidinecarboxamide) trifluoroacetate]	0.0158 to 0.1
CCc1nc2c(cnn2CC)c(NC2CCN(C(N)=O)CC2)c1CNC(=O)Cc1cccc(C(=O)NCc2c(CC)nc3c(cnn3CC)c2NC2CCN(C(N)=O)CC2)c1 [Example 13, 4-({5-[({[3-({[(4-{[1-(aminocarbonyl)-4-piperidinyl]amino}-1,6-diethyl-1H-pyrazolo[3,4-b]pyridin-5-yl)methyl]amino}carbonyl)phenyl]acetyl}amino)methyl]-1,6-diethyl-1H-pyrazolo[3,4-b]pyridin-4-yl}amino)-1-piperidinecarboxamide trifluoroacetate]	0.126 to 1
CCc1nc2c(cnn2CC)c(NC2CCN(C(N)=O)CC2)c1CNC(=O)CCC(=O)NCc1c(CC)nc2c(cnn2CC)c1NC1CCN(C(N)=O)CC1 [Example 17, N,N′-bis[(4-{[1-(aminocarbonyl)-4-piperidinyl]amino}-1,6-diethyl-1H-pyrazolo[3,4-b]pyridin-5-yl)methyl]butanediamide trifluoroacetate]	0.126 to 1

Next, values leading:

IC50 [nM]	SMILES
~0.1	CCc1nc2c(cnn2CC)c(NC2CCOCC2)c1CNC(=O)c1cccc(-c2cccc(C(=O)NCc3c(CC)nc4c(cnn4CC)c3NC3CCOCC3)c2)c1 [Example 10, N,N′-bis{[1,6-diethyl-4-(tetrahydro-2H-pyran-4-ylamino)-1H-pyrazolo[3,4-b]pyridin-5-yl]methyl}-3,3′-biphenyldicarboxamide]
0.126 to 1	CCc1nc2c(cnn2CC)c(NC2CCOCC2)c1CNC(=O)c1ccc(C(=O)NCc2c(CC)nc3c(cnn3CC)c2NC2CCOCC2)cc1 [Example 22, N,N′-bis{[1,6-diethyl-4-(tetrahydro-2H-pyran-4-ylamino)-1H-pyrazolo[3,4-b]pyridin-5-yl]methyl}-1,4-benzenedicarboxamide]
0.126 to 1	CCc1nc2c(cnn2CC)c(NC2CCOCC2)c1CNC(=O)c1ccc(-c2ccc(C(=O)NCc3c(CC)nc4c(cnn4CC)c3NC3CCOCC3)cn2)nc1 [Example 34, N,N′-bis{[1,6-diethyl-4-(tetrahydro-2H-pyran-4-ylamino)-1H-pyrazolo[3,4-b]pyridin-5-yl]methyl}-2,2′-bipyridine-5,5′-dicarboxamide]
0.0158 to 0.1	CCc1nc2c(cnn2CC)c(NC2CCN(C(N)=O)CC2)c1CNC(=O)Cc1ccc(C(=O)NCc2c(CC)nc3c(cnn3CC)c2NC2CCN(C(N)=O)CC2)cc1 [Example 15, 4-({5-[({[4-({[(4-{[1-(aminocarbonyl)-4-piperidinyl]amino}-1,6-diethyl-1H-pyrazolo[3,4-b]pyridin-5-yl)methyl]amino}carbonyl)phenyl]acetyl}amino)methyl]-1,6-diethyl-1H-pyrazolo[3,4-b]pyridin-4-yl}amino)-1-piperidinecarboxamide trifluoroacetate]
0.0158 to 0.1	CCc1nc2c(cnn2CC)c(NC2CCOCC2)c1CNC(=O)CCc1ccc(C(=O)NCc2c(CC)nc3c(cnn3CC)c2NC2CCOCC2)cc1 [Example 1, N-{[1,6-diethyl-4-(tetrahydro-2H-pyran-4-ylamino)-1H-pyrazolo[3,4-b]pyridin-5-yl]methyl}-4-[3-({[1,6-diethyl-4-(tetrahydro-2H-pyran-4-ylamino)-1H-pyrazolo[3,4-b]pyridin-5-yl]methyl}amino)-3-oxopropyl]benzamide]

Tested on: TNF-α production in human PBMC (peripheral blood mononuclear cells)
Assay: Inhibition of TNF-alpha production in human PBMC (MSD technology)
Format: cell-based
Conditions: inhibition of LPS-stimulated TNF-α production in human PBMC; measured and/or mean; read-out: PBMC pIC50 (MSD assay) (converted)
Procedure: A 96-well plate (96 MicroWell™ Plates Nunclon™Δ-High Flange Design, Fisher Scientific UK, Bishop Meadow Road, Loughborough LE 11 5 RG, Leicestershire, UK) is prepared by initially adding to column 1 ca. 10 mM of test compound dissolved in DMSO. […] The compound is further diluted with DMSO into columns 2 to 9 by 8 successive 3fold dilutions using the Biomek® FX Laboratory Automation Workstation (Beckman Coulter, Inc., 4300 N. Harbor Boulevard, P.O. Box 3100, Fullerton, Calif. 92834-3100 USA). Column 10 is used as a DMSO negative control (High Signal, 0% response), whilst column 11, which contains 10 mM of the PDE4 inhibitor roflumilast, is used as a positive control (Low Signal, 100% response). About 1 μl (about 1 ul) of compound is transferred to the compound plate using the Biomek® FX.
PBMC cells (peripheral blood mononuclear cells) are prepared from heparinised human blood (using 1% v/v Heparin Sodium 10001 U/ml Endotoxin Free, Leo Laboratories Ltd., Cashel Road, Dublin 12. Ireland, Cat No: PL0043/0149) from normal volunteers using the Accuspin™ System-Histopaque®-1077 essentially (Sigma-Aldrich Company Ltd., The Old Brickyard New Rd, Gillingham Dorset SP8 4XT). About 20 ml of blood is overlaid onto 15 ml Histopaque® in Accuspin™ tubes. The tube is then centrifuged at about 800 g for ca. 20 minutes. The cells are collected from the interface, washed by centrifugation (ca. 1300 g, ca. 10 minutes) and resuspended in RPMI1640 medium (Low endotoxin RPMI1640 medium, Cat No: 31870-025, Invitrogen Corporation Invitrogen Ltd, 3 Fountain Drive, Inchinnan Business Park, Paisley PA4 9RF, UK) containing 10% foetal calf serum, 1% L-glutamine (Invitrogen Corporation, Cat No: 25030024) and 1% penicillin/streptomycin (Invitrogen Corporation, Cat No: 15140-122). Viable cells are counted by trypan blue staining and diluted to 1×10^6 viable cells/ml. About 50 μl (about 50 ul) of diluted cells and about 75 μl (about 75 ul) of LPS (ca. 1 ng/ml final; Sigma Cat No: L-6386) are added to the compound plate, which is then incubated at 37° C., 5% CO2, for 20 hours.
The supernatant is removed and the concentrations of TNF-α are determined by electrochemiluminescence assay using the Meso Scale Discovery (MSD) technology (Meso Scale Discovery, 9238 Gaither Road, Gaithersburg, Md. 20877, USA). See the “TNF-α (TNF-alpha) MSD Assay” described below for typical details.
Using the Biomek FX, 25 μl (25 ul) of MSD Human Serum Cytokine Assay Diluent (Meso Scale Discovery, 9238 Gaither Road, Gaithersburg, Md. 20877) is added to a 96-well High-Bind MSD plate pre-coated with anti-hTNF alpha capture antibody (MA6000) and then incubated for 24 hours at 4° C. to prevent non-specific binding. […]
For the PBMC assay, about 20 μl (ul) of diluted sulfo-TAG antibody (ca. 1 μg/ml final) is added to each well, and the plates/wells are shaken at room temperature for 2 hours. Finally, about 90 μl (ul) of MSD Read Buffer P (diluted to 2.5 times with distilled water) is added and the plates are read on a MSD Sector 6000.
Data analysis is performed with ActivityBase/XC50 module (ID Business Solutions Ltd., 2 Occam Court, Surrey Research Park, Guildford, Surrey, GU2 7QB UK). Data are normalized and expressed as % inhibition using the formula 100*((U-C1)/(C2-C1)) where U is the unknown value, C1 is the average of the high signal (0%) control wells (column 10), and C2 is the average of the low signal (100%) control wells (column 11). […]

SMILES	IC50 [nM]
CCc1nc2c(cnn2CC)c(NC2CCOCC2)c1CNC(=O)c1cccc(-c2cccc(C(=O)NCc3c(CC)nc4c(cnn4CC)c3NC3CCOCC3)c2)c1 [Example 10, N,N′-bis{[1,6-diethyl-4-(tetrahydro-2H-pyran-4-ylamino)-1H-pyrazolo[3,4-b]pyridin-5-yl]methyl}-3,3′-biphenyldicarboxamide]	~0.02
